Values joined by “and” are separate entries in the source; they are usually repeats but may differ in a detail not shown here. Equal entries are not always repeated. Where two headings read alike, the source gives them in different places. Where a SMILES comes first, the peptide text is derived from it. Where no end group is shown, it is not given here. [ ]: non-standard residue; d: D form. hArg = N=C(N)NCCCC[C@H](N)C(=O)O; Cha = N[C@@H](CC1CCCCC1)C(=O)O; Nle = CCCC[C@H](N)C(=O)O; Aib = CC(C)(N)C(=O)O
Assays:
[1] = Circular dichroism spectroscopy, helical residues per peptide chain; type: physicochemical; conditions: calculated from [θ]222
Experimental: Circular Dichroism—CD spectra were obtained on a JASCO J-600 spectropolarimeter at 20° C. Four spectra were averaged and the data smoothed by the JASCO software. The instrument was calibrated with ammonium (+)-10-camphorsulfonate. Peptide concentrations were verified from the absorption at 280 nm, using an extinction coefficient of 5700 M^−1 for the single tryptophan. Data are expressed as the number of helical residues per peptide chain, as calculated from −[θ]222×30/28,000, where [θ]222 is the mean residue elipticity ([θ]) at 222 nm, as was described previously (Barbier, J. R., et al. (2005) J Biol Chem. 280:23771-23777).

[2] = target: T1, PTHR-delNt (Homo sapiens, UniProt Q03431, DEL24-181); test: Competition binding in COS-7 cell membranes with 125I-[Aib1,3,M]PTH(1-15)NH2 tracer; conditions: for effect on binding to PTHR-delNt (in words) / reduction (alteration) of binding affinity for PTHR-delNt relative to parent peptide: COS-7 membranes; for reduction (alteration) of binding affinity for PTHR-delNt relative to parent peptide: versus the respective parent peptide; for IC50: COS-7 membranes cotransfected with negative-dominant Gαs, read-out: PTHR-delNT (COS-7) IC50
T1 construct: expressed in transfected cells; host or cells: COS-7 cells, transient co-transfection; membranes prepared
T1 sequence (Q03431 with tags, fused parts or gaps DEL24-181): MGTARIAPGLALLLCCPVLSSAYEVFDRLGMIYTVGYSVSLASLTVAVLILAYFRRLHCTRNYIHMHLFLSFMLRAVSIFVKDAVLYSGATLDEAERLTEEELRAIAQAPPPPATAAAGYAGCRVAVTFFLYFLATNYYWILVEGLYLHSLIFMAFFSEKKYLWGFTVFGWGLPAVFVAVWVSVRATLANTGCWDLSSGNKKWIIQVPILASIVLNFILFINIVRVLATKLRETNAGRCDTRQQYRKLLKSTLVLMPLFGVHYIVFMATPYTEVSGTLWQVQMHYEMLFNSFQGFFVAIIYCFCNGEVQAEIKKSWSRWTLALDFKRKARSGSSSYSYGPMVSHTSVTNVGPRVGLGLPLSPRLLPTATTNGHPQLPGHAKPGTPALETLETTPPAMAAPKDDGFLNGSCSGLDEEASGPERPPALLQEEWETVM
Experimental: PTHR-delNt is a derivative of the human PTHR that is deleted for most (Ala^24-Arg^181) of the amino-terminal extracellular domain (Shimizu, M., et al. (2001) Endocrinology 142:3068-3074). This PTHR construct was expressed in COS-7 cells via transient DNA transfection. For cAMP assays, the cells were transfected in 24-well plates using 0.2 μg of plasmid DNA and 0.6 μl of Fugene-6 reagent (Roche Diagnostics, Indianapolis Ind.) per well, and assays were performed on the intact cells three to four days after transfection. For binding assays, cell membranes were prepared from transfected COS-7 cells. To increase the maximal binding of ^125I-[Aib^1,3,M]PTH(1-15)NH2 to PTHR-delNt in these membranes, the cells were cotransfected with a negative dominant mutant Gαs protein (Gαs^ND). This mutant Gαs subunit is thought to couple to cognate receptors, and thus stabilize high affinity receptor conformations, more efficiently than does wild-type Gαs, without increasing basal cAMP levels (Berlot, C. H. (2002) J Biol Chem 277:21080-5). A precursor of this mutant Gαs, Gαs(α3β5), was recently used to increase binding of ^125I-[Aib^1,3,M]PTH(1-15)NH2 to PTHR-delNt in COS-7 cell membranes (Dean, T., (2006) Mol Endocrinol 20:931-942). Gαs^ND, which contains the same five amino acid replacement of corresponding Gαi residues in the α3β5 loop as Gαs(α3β5), plus the point mutations of Gly^226 to Ala, which increases affinity for Gβ/γ, and Ala^366 to Ser, which decreases affinity for GDP, yields approximately two-fold higher levels of specific binding of ^125I-[Aib^1,3,M]PTH(1-15)NH2 than does Gαs(α3β5) (data not shown). For the current membrane preparations, COS-7 cells were co-transfected in six-well plates using 1 μg of each plasmid DNA encoding PTHR-delNt and Gαs^ND, and 6 μl of Fugene-6 reagent (Roche Diagnostics, Indianapolis Ind.) per well. Cells were harvested three days after transfection, and membranes were prepared as described (Dean, T., et al. (2006) Mol Endocrinol 20:931-942).
Receptor binding—Binding to the wild-type human PTHR in intact HKRK-B7 cells and ROS 17/2.8 cells was assessed using ^125I-PTH(1-34) as a tracer radioligand, as described (Shimizu, M., (2001) Endocrinology 142:3068-3074). In brief, the cells in 24-well plates (about 500,000 cells per well) were incubated in binding buffer containing radioligand (about 100,000 cpm per well) with or without unlabeled peptide ligand (3×10^−9 to 1×10^−5 M) for four hours at 15° C. The binding mixture was then removed by aspiration, the cells were rinsed three times with binding buffer, lysed in 1 M NaOH, and the entire lysate was counted for gamma-irradiation in a gamma counter. Binding to PTHR-delNt in COS-7 cell membranes was assessed in 96-well, vacuum filtration plates (Multiscreen-Durapore HV, […] membranes, Millipore Corp., Millford, Mass.) using ^125I-[Aib^1,3,M]PTH(1-15)NH2 as a tracer radioligand, as described (Dean, T., (2006) Mol Endocrinol 20:931-942). In brief, cell membranes (20 μg/well) were incubated in membrane binding buffer containing radioligand (30,000 cpm/well) with or without unlabeled peptide ligand (3×10^−9 to 1×10^−5 M) for 90 minutes at 21° C. The plates were then subject to rapid vacuum filtration, the filters were washed once with buffer, detached from the plate and counted for gamma-irradiation in a gamma counter. Non-specific binding was defined as the binding observed in the presence of 1×10^−6 M PTH(1-31)NH2 for HKRK-B7 and ROS 17/2.8 cells, and 1×10^−6 M [Aib^1,3,M]PTH(1-15)NH2 for PTHR-delNt. Specifically bound radioactivity was calculated as a percentage of the radioactivity specifically bound in the absence of competing ligand. […]

[3] = [Ala1,Arg19]hPTH(1-31)NH2 analogs

With “AVSEIQLMHNLGKHLNSMRRVEWLRKKEQDV-NH2 [Leu^28→Glu]” the CD helical residues [1, 3] was 5, the “effect on binding to PTHR-delNt (in words)” value [2] was “only mildly impaired binding to PTHR-delNt” and the “reduction (alteration) of binding affinity for PTHR-delNt relative to parent peptide” value [2] was “less than three-fold”. For the same compound, the IC50 [2, 3] was 974 ± 252 nM.

In the case of “SVSEIQLMHNLGKHLNSAERVEWLRKKLQDV-NH2 [Met^18→Ala]”, the CD helical residues ([1]; hPTH(1-31)NH2 analogs) is reported as 10 and the IC50 ([2]; hPTH(1-31)NH2 analogs) is reported as 8800 nM.

For `CC[C@H](C)[C@H](NC(=O)[C@H](CCC(=O)O)NC(=O)[C@H](CO)NC(=O)[C@@H](NC(=O)[C@H](C)N)C(C)C)C(=O)N[C@@H](CCC(N)=O)C(=O)N[C@@H](CC(C)C)C(=O)N[C@@H](CCSC)C(=O)N[C@@H](Cc1c[nH]cn1)C(=O)N[C@@H](CC(N)=O)C(=O)N[C@@H](CC(C)C)C(=O)NCC(=O)N[C@@H](CCCCN)C(=O)N[C@@H](Cc1c[nH]cn1)C(=O)N[C@@H](CC(C)C)C(=O)N[C@@H](CC(N)=O)C(=O)N[C@@H](CO)C(=O)N[C@@H](CCSC)C(=O)N[C@@H](CCCNC(=N)N)C(=O)N[C@@H](CCCNC(=N)N)C(=O)N[C@H](C(=O)N[C@@H](CCC(=O)O)C(=O)N[C@@H](Cc1c[nH]c2ccccc12)C(=O)N[C@@H](CC(C)C)C(=O)N[C@@H](CCCNC(=N)N)C(=O)N[C@@H](CC1CCCCC1)C(=O)N[C@@H](CCCCN)C(=O)N[C@@H](CC(C)C)C(=O)N[C@@H](CCC(N)=O)C(=O)N[C@@H](CC(=O)O)C(=O)N[C@H](C(N)=O)C(C)C)C(C)C` [Lys^26→Cha] (H-AVSEIQLMHNLGKHLNSMRRVEWLR[Cha]KLQDV-NH2; N-terminus assumed), the CD helical residues [1, 3] was 6, the “reduction (alteration) of binding affinity for PTHR-delNt relative to parent peptide” value [2] was “approximately five- to seven-fold” and the IC50 [2, 3] was 1870 ± 281 nM.

With `CC[C@H](C)[C@H](NC(=O)[C@H](CCC(=O)O)NC(=O)[C@H](CO)NC(=O)[C@@H](NC(=O)[C@H](C)N)C(C)C)C(=O)N[C@@H](CCC(N)=O)C(=O)N[C@@H](CC(C)C)C(=O)N[C@@H](CCSC)C(=O)N[C@@H](Cc1c[nH]cn1)C(=O)N[C@@H](CC(N)=O)C(=O)N[C@@H](CC(C)C)C(=O)NCC(=O)N[C@@H](CCCCN)C(=O)N[C@@H](Cc1c[nH]cn1)C(=O)N[C@@H](CC(C)C)C(=O)N[C@@H](CC(N)=O)C(=O)N[C@@H](CO)C(=O)N[C@@H](CCSC)C(=O)N[C@@H](CCCNC(=N)N)C(=O)N[C@@H](CCCNC(=N)N)C(=O)N[C@H](C(=O)N[C@@H](CCC(=O)O)C(=O)N[C@@H](CC1CCCCC1)C(=O)N[C@@H](CC(C)C)C(=O)N[C@@H](CCCNC(=N)N)C(=O)N[C@@H](CCCCN)C(=O)N[C@@H](CCCCN)C(=O)N[C@@H](CC(C)C)C(=O)N[C@@H](CCC(N)=O)C(=O)N[C@@H](CC(=O)O)C(=O)N[C@H](C(N)=O)C(C)C)C(C)C` [Trp^23→Cha] (H-AVSEIQLMHNLGKHLNSMRRVE[Cha]LRKKLQDV-NH2; N-terminus assumed) the CD helical residues [1, 3] was 8, the “effect on binding to PTHR-delNt (in words)” value [2] was “little or no effect on binding to PTHR-delNt” and the “reduction (alteration) of binding affinity for PTHR-delNt relative to parent peptide” value [2] was “three-fold or less”. The IC50 [2, 3] was 867 ± 402 nM.

Compound `CCCC[C@H](NC(=O)[C@H](CCC(=O)O)NC(=O)[C@H](CCSC)NC(=O)[C@H](CO)NC(=O)[C@H](CC(N)=O)NC(=O)[C@H](CC(C)C)NC(=O)[C@H](Cc1c[nH]cn1)NC(=O)[C@H](CCCCN)NC(=O)CNC(=O)[C@H](CC(C)C)NC(=O)[C@H](CC(N)=O)NC(=O)[C@H](Cc1c[nH]cn1)NC(=O)[C@H](CCSC)NC(=O)[C@H](CC(C)C)NC(=O)[C@H](CCC(N)=O)NC(=O)[C@@H](NC(=O)[C@H](CCC(=O)O)NC(=O)[C@H](CO)NC(=O)[C@@H](NC(=O)[C@@H](N)CO)C(C)C)[C@@H](C)CC)C(=O)N[C@H](C(=O)N[C@@H](CCC(=O)O)C(=O)N[C@@H](Cc1c[nH]c2ccccc12)C(=O)N[C@@H](CC(C)C)C(=O)N[C@@H](CCCNC(=N)N)C(=O)N[C@@H](CCCCN)C(=O)N[C@@H](CCCCN)C(=O)N[C@@H](CC(C)C)C(=O)N[C@@H](CCC(N)=O)C(=O)N[C@@H](CC(=O)O)C(=O)N[C@H](C(N)=O)C(C)C)C(C)C` [Arg^20→Nle] (H-SVSEIQLMHNLGKHLNSME[Nle]VEWLRKKLQDV-NH2; N-terminus assumed) has a CD helical residues ([1]; hPTH(1-31)NH2 analogs) of 12 and an IC50 ([2]; hPTH(1-31)NH2 analogs) of 10700 nM.

Compound `CC[C@H](C)[C@H](NC(=O)[C@H](CCC(=O)O)NC(=O)[C@H](CO)NC(=O)[C@@H](NC(=O)[C@H](C)N)C(C)C)C(=O)N[C@@H](CCC(N)=O)C(=O)N[C@@H](CC(C)C)C(=O)N[C@@H](CCSC)C(=O)N[C@@H](Cc1c[nH]cn1)C(=O)N[C@@H](CC(N)=O)C(=O)N[C@@H](CC(C)C)C(=O)NCC(=O)N[C@@H](CCCCN)C(=O)N[C@@H](Cc1c[nH]cn1)C(=O)N[C@@H](CC(C)C)C(=O)N[C@@H](CC(N)=O)C(=O)N[C@@H](CC1CCCCC1)C(=O)N[C@@H](CCSC)C(=O)N[C@@H](CCCNC(=N)N)C(=O)N[C@@H](CCCNC(=N)N)C(=O)N[C@H](C(=O)N[C@@H](CCC(=O)O)C(=O)N[C@@H](Cc1c[nH]c2ccccc12)C(=O)N[C@@H](CC(C)C)C(=O)N[C@@H](CCCNC(=N)N)C(=O)N[C@@H](CCCCN)C(=O)N[C@@H](CCCCN)C(=O)N[C@@H](CC(C)C)C(=O)N[C@@H](CCC(N)=O)C(=O)N[C@@H](CC(=O)O)C(=O)N[C@H](C(N)=O)C(C)C)C(C)C` [Ser^17→Cha] (H-AVSEIQLMHNLGKHLN[Cha]MRRVEWLRKKLQDV-NH2; N-terminus assumed) has a CD helical residues [1, 3] of 9 and an IC50 [2, 3] of 179 ± 41 nM.

`CCCC[C@H](NC(=O)[C@H](CC(C)C)NC(=O)[C@H](CCC(N)=O)NC(=O)[C@@H](NC(=O)[C@H](CCC(=O)O)NC(=O)C(C)(C)NC(=O)[C@@H](NC(=O)C(C)(C)N)C(C)C)[C@@H](C)CC)C(=O)N[C@@H](Cc1c[nH]cn1)C(=O)N[C@@H](CCC(N)=O)C(=O)N[C@@H](CCCCNC(=N)N)C(=O)N[C@@H](C)C(=O)N[C@@H](CCCCN)C(=O)N[C@@H](Cc1c[nH]c2ccccc12)C(=O)N[C@@H](Cc1ccc(O)cc1)C(N)=O` [[Aib^1,3,M]PTH(1-15), [Aib^1,3,Nle^8,Gln^10,homoarginine^11,Ala^12,Trp^14,Tyr^15]PTH(1-15)NH2, reference compound] (H-[Aib]V[Aib]EIQL[Nle]HQ[hArg]AKWY-NH2; N-terminus assumed) showed an IC50 ([2]; hPTH(1-31)NH2 analogs) of 2.2 ± 0.5 nM.

With “AVSEIQLMHNLGKHLNSMRRVEWLRKKLQDV-NH2 [[Ala^1,Arg^19]PTH(1-31)NH2]” the IC50 [2, 3] was 400 nM and 397 nM.

— US8143374B2, “Polypeptide derivatives of parathyroid hormone (PTH)” (The General Hospital Corporation, priority 2006, dated 2012)
